As usually defined, the DC50 is the concentration giving 50% degradation. The term Dmax denotes the largest share of the target that was removed.

A value given as a limit tells only on which side of the number the result lay.

This experiment addresses T1, PLK1 (Homo sapiens, UniProt P53350).
T1 construct: endogenous in cells; host or cells: HeLa
The experiment in a line: PLK1 protein degradation in HeLa cells, Western blotting (PLK1/GAPDH ratio). The class given is cell-based. The note with it: for DC50 / Dmax: 6 hours compound incubation; for DC50: measured only if the grade of Dmax is A or B; for Dmax: thymidine block and release, 10 points three-fold from 3 μM, PLK1 to GAPDH ratio, read-out: Dmax. The procedure, abridged: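 PLK1 level measured by Western blot as PLK1/GAPDH in HeLa lysates (15 μg protein per lane). Cells were blocked with 2 mM thymidine 24 h, released 4 h, and exposed 6 h to compound, 10 concentrations, 3-fold steps, top 3 μM.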
Background: A western blot detects proteins with antibodies after separation by electrophoresis.

T1 sequence (P53350 whole entry): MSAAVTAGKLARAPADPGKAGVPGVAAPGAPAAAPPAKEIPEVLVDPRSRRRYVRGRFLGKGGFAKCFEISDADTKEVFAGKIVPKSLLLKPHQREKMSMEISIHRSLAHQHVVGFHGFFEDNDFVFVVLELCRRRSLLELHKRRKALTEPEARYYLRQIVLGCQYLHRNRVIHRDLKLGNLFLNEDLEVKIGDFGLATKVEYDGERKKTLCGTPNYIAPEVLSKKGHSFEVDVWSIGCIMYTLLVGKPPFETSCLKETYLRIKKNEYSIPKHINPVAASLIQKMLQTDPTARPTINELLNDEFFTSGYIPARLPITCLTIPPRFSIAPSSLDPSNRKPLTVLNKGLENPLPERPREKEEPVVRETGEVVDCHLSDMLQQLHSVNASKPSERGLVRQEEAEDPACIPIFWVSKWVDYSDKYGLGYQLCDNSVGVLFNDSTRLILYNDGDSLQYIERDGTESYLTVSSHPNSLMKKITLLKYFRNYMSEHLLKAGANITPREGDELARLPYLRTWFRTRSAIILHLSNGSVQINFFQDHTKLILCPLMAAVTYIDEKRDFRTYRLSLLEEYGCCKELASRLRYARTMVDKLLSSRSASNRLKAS

In the case of `COc1cc(C(=O)NC2CCN(C(=O)CN3CCN(c4ccc5c(c4)C(=O)N(C4CCC(=O)NC4=O)C5=O)CC3)CC2)c(F)cc1Nc1ncc2c(n1)N(C1CCCC1)CC(F)(F)C(=O)N2C` (centres unmarked) [Compound 73, 4-((9-cyclopentyl-7,7-difluoro-5-methyl-6-oxo-6,7,8,9-tetrahydro-5H-pyrimido[4,5-b][1,4]diazepin-2-yl)amino)-N-(1-(2-(4-(2-(2,6-dioxopiperidin-3-yl)-1,3-dioxoisoindolin-5-yl)piperazin-1-yl)acetyl)piperidin-4-yl)-2-fluoro-5-methoxybenzamide], the DC50 was at most 50 nM and the maximal degradation (Dmax) is at least 80%.

On to `COc1cc(C(=O)NC2CC3(C2)CN(C(=O)CCCNc2cccc4c2C(=O)N(C2CCC(=O)NC2=O)C4=O)C3)c(F)cc1Nc1ncc2c(n1)N(C1CCCC1)CC(F)(F)C(=O)N2C` (centres unmarked) [Compound 160, 4-((9-cyclopentyl-7,7-difluoro-5-methyl-6-oxo-6,7,8,9-tetrahydro-5H-pyrimido[4,5-b][1,4]diazepin-2-yl)amino)-N-(2-(4-((2-(2,6-dioxopiperidin-3-yl)-1,3-dioxoisoindolin-4-yl)amino)butanoyl)-2-azaspiro[3.3]heptan-6-yl)-2-fluoro-5-methoxybenzamide], for which the DC50 is at most 50 nM and the maximal degradation (Dmax) was at least 80%.

With `COc1cc(C(=O)NC2CCN(C[C@@H]3C[C@@H]3CNc3cccc4c3C(=O)N(C3CCC(=O)NC3=O)C4=O)CC2)c(F)cc1Nc1ncc2c(n1)N(C1CCCC1)CC(F)(F)C(=O)N2C` (stereo partly drawn) [Compound 48, 4-((9-cyclopentyl-7,7-difluoro-5-methyl-6-oxo-6,7,8,9-tetrahydro-5H-pyrimido[4,5-b][1,4]diazepin-2-yl)amino)-N-(1-(((1R,2S)-2-(((2-(2,6-dioxopiperidin-3-yl)-1,3-dioxoisoindolin-4-yl)amino)methyl)cyclopropyl)methyl)piperidin-4-yl)-2-fluoro-5-methoxybenzamide], the 50% degradation concentration (DC50) is at most 500 nM and the Dmax lay within 60 to 80%.

For the compound `COc1cc(C(=O)NC2CCN(Cc3cncc(CNC(=O)COc4cccc5c4C(=O)N(C4CCC(=O)NC4=O)C5=O)c3)CC2)c(F)cc1Nc1ncc2c(n1)N(C1CCCC1)CC(F)(F)C(=O)N2C` (centres unmarked) [Compound 62, 4-((9-cyclopentyl-7,7-difluoro-5-methyl-6-oxo-6,7,8,9-tetrahydro-5H-pyrimido[4,5-b][1,4]diazepin-2-yl)amino)-N-(1-((5-((2-((2-(2,6-dioxopiperidin-3-yl)-1,3-dioxoisoindolin-4-yl)oxy)acetamido)methyl)pyridin-3-yl)methyl)piperidin-4-yl)-2-fluoro-5-methoxybenzamide], the DC50 was at most 50 nM and the greatest degradation seen (Dmax) was in the range of 60 to 80%.

For the compound `CN1C(=O)C(F)(F)CN(C2CCCC2)c2nc(Nc3ccc(C(=O)N[C@H]4CCN(C(=O)CCC(=O)N5CCN(c6ccc7c(c6)C(=O)N(C6CCC(=O)NC6=O)C7=O)CC5)C4)cc3)ncc21` (stereo partly drawn) [Compound 146, 4-((9-cyclopentyl-7,7-difluoro-5-methyl-6-oxo-6,7,8,9-tetrahydro-5H-pyrimido[4,5-b][1,4]diazepin-2-yl)amino)-N-((3S)-1-(4-(4-(2-(2,6-dioxopiperidin-3-yl)-1,3-dioxoisoindolin-5-yl)piperazin-1-yl)-4-oxobutanoyl)pyrrolidin-3-yl)benzamide], the greatest degradation seen (Dmax) is below 60%.

For the compound `COc1cc(C(=O)NC2CCN(CCOCCOCCNc3cccc4c3C(=O)N(C3CCC(=O)NC3=O)C4=O)C2)c(F)cc1Nc1ncc2c(n1)N(C1CCCC1)CC(F)(F)C(=O)N2C` (centres unmarked) [Example 107, 4-((9-cyclopentyl-7,7-difluoro-5-methyl-6-oxo-6,7,8,9-tetrahydro-5H-pyrimido[4,5-b][1,4]diazepin-2-yl)amino)-N-(1-(2-(2-(2-((2-(2,6-dioxopiperidin-3-yl)-1,3-dioxoisoindolin-4-yl)amino)ethoxy)ethoxy)ethyl)pyrrolidin-3-yl)-2-fluoro-5-methoxybenzamide], the half-maximal degradation concentration (DC50) was at most 50 nM and the Dmax was at least 80%.

With `COc1cc(C(=O)NC2CCN(CCCCCCCCNc3cccc4c3C(=O)N(C3CCC(=O)NC3=O)C4=O)CC2)c(F)cc1Nc1ncc2c(n1)N(C1CCCC1)CC(F)(F)C(=O)N2C` (centres unmarked) [Compound 12, 4-((9-cyclopentyl-7,7-difluoro-5-methyl-6-oxo-6,7,8,9-tetrahydro-5H-pyrimido[4,5-b][1,4]diazepin-2-yl)amino)-N-(1-(8-((2-(2,6-dioxopiperidin-3-yl)-1,3-dioxoisoindolin-4-yl)amino)octyl)piperidin-4-yl)-2-fluoro-5-methoxybenzamide], the DC50 was above 500 nM and the Dmax was in the range of 60 to 80%.

As for `CCC(C)Oc1cc(C(=O)NC2CCN(CCOCCOCCNc3cccc4c3C(=O)N(C3CCC(=O)NC3=O)C4=O)CC2)c(F)cc1Nc1ncc2c(n1)N(C1CCCC1)CC(F)(F)C(=O)N2C` (centres unmarked) [Example 94, 5-(sec-butoxy)-4-((9-cyclopentyl-7,7-difluoro-5-methyl-6-oxo-6,7,8,9-tetrahydro-5H-pyrimido[4,5-b][1,4]diazepin-2-yl)amino)-N-(1-(2-(2-(2-((2-(2,6-dioxopiperidin-3-yl)-1,3-dioxoisoindolin-4-yl)amino)ethoxy)ethoxy)ethyl)piperidin-4-yl)-2-fluorobenzamide], the DC50 is above 500 nM and the greatest degradation seen (Dmax) was 60 to 80%.

`COc1cc(C(=O)NC2CCN(CCOCCOCCOCCNc3cccc4c3C(=O)N(C3CCC(=O)NC3=O)C4=O)CC2)c(F)cc1Nc1ncc2c(n1)N(C1CCCC1)CC(F)(F)C(=O)N2C` (centres unmarked) [Compound 3, 4-((9-cyclopentyl-7,7-difluoro-5-methyl-6-oxo-6,7,8,9-tetrahydro-5H-pyrimido[4,5-b][1,4]diazepin-2-yl)amino)-N-(1-(2-(2-(2-(2-((2-(2,6-dioxopiperidin-3-yl)-1,3-dioxoisoindolin-4-yl)amino)ethoxy)ethoxy)ethoxy)ethyl)piperidin-4-yl)-2-fluoro-5-methoxybenzamide]: the 50% degradation concentration (DC50) is at most 50 nM and the maximal degradation (Dmax) is at least 80%.

Regarding `COc1cc(C(=O)NC2CCN(CCCCCNc3cccc4c3C(=O)N(C3CCC(=O)NC3=O)C4=O)CC2)c(F)cc1Nc1ncc2c(n1)N(C1CCCC1)CC(F)(F)C(=O)N2C` (centres unmarked) [Compound 9, 4-((9-cyclopentyl-7,7-difluoro-5-methyl-6-oxo-6,7,8,9-tetrahydro-5H-pyrimido[4,5-b][1,4]diazepin-2-yl)amino)-N-(1-(5-((2-(2,6-dioxopiperidin-3-yl)-1,3-dioxoisoindolin-4-yl)amino)pentyl)piperidin-4-yl)-2-fluoro-5-methoxybenzamide], the DC50 was at most 500 nM and the Dmax is 60 to 80%.

`COc1cc(C(=O)NCCCCCCc2cccc3c2CN(C2CCC(=O)NC2=O)C3=O)c(F)cc1Nc1ncc2c(n1)N(C1CCCC1)CC(F)(F)C(=O)N2C` (centres unmarked) [Compound 164, 4-((9-cyclopentyl-7,7-difluoro-5-methyl-6-oxo-6,7,8,9-tetrahydro-5H-pyrimido[4,5-b][1,4]diazepin-2-yl)amino)-N-(6-(2-(2,6-dioxopiperidin-3-yl)-1-oxoisoindolin-4-yl)hexyl)-2-fluoro-5-methoxybenzamide]: the half-maximal degradation concentration (DC50) was at most 500 nM and the maximal degradation (Dmax) was in the range of 60 to 80%.

As to `COc1cc(C(=O)NC2CCN(C(=O)CN3CCN(c4cccc5c4C(=O)N(C4CCC(=O)NC4=O)C5=O)CC3)CC2)c(F)cc1Nc1ncc2c(n1)N(C1CCCC1)CC(F)(F)C(=O)N2C` (centres unmarked) [Compound 70, 4-((9-cyclopentyl-7,7-difluoro-5-methyl-6-oxo-6,7,8,9-tetrahydro-5H-pyrimido[4,5-b][1,4]diazepin-2-yl)amino)-N-(1-(2-(4-(2-(2,6-dioxopiperidin-3-yl)-1,3-dioxoisoindolin-4-yl)piperazin-1-yl)acetyl)piperidin-4-yl)-2-fluoro-5-methoxybenzamide], the DC50 was at most 500 nM and the Dmax lay in the range of 60 to 80%.

Consider `COc1cc(C(=O)NC2CCN(CCOCCNC(=O)COc3cccc4c3C(=O)N(C3CCC(=O)NC3=O)C4=O)CC2)c(F)cc1Nc1ncc2c(n1)N(C1CCCC1)CC(F)(F)C(=O)N2C` (centres unmarked) [Compound 56, 4-((9-cyclopentyl-7,7-difluoro-5-methyl-6-oxo-6,7,8,9-tetrahydro-5H-pyrimido[4,5-b][1,4]diazepin-2-yl)amino)-N-(1-(2-(2-(2-((2-(2,6-dioxopiperidin-3-yl)-1,3-dioxoisoindolin-4-yl)oxy)acetamido)ethoxy)ethyl)piperidin-4-yl)-2-fluoro-5-methoxybenzamide], for which the 50% degradation concentration (DC50) is at most 500 nM and the Dmax is 60 to 80%.

On to `COc1cc(C(=O)N[C@H]2CCN(C(=O)COCCOCCNc3cccc4c3C(=O)N(C3CCC(=O)NC3=O)C4=O)C2)c(F)cc1Nc1ncc2c(n1)N(C1CCCC1)CC(F)(F)C(=O)N2C` (stereo partly drawn) [Compound 115, 4-((9-cyclopentyl-7,7-difluoro-5-methyl-6-oxo-6,7,8,9-tetrahydro-5H-pyrimido[4,5-b][1,4]diazepin-2-yl)amino)-N-((3S)-1-(2-(2-(2-((2-(2,6-dioxopiperidin-3-yl)-1,3-dioxoisoindolin-4-yl)amino)ethoxy)ethoxy)acetyl)pyrrolidin-3-yl)-2-fluoro-5-methoxybenzamide], for which the 50% degradation concentration (DC50) was at most 50 nM and the Dmax was at least 80%.

Take `COc1cc(C(=O)NC2CCN(CCCn3cnc(CNc4cccc5c4C(=O)N(C4CCC(=O)NC4=O)C5=O)c3)CC2)c(F)cc1Nc1ncc2c(n1)N(C1CCCC1)CC(F)(F)C(=O)N2C` (centres unmarked) [Compound 43]: the DC50 was at most 50 nM and the greatest degradation seen (Dmax) is at least 80%.

Take `COc1cc(C(=O)NC2CCN(CCOCCNc3cccc4c3C(=O)N(C3CCC(=O)NC3=O)C4=O)CC2)c(F)cc1Nc1ncc2c(n1)N(C1CCCC1)CC(F)(F)C(=O)N2C` (centres unmarked) [Compound 1, 4-((9-cyclopentyl-7,7-difluoro-5-methyl-6-oxo-6,7,8,9-tetrahydro-5H-pyrimido[4,5-b][1,4]diazepin-2-yl)amino)-N-(1-(2-(2-((2-(2,6-dioxopiperidin-3-yl)-1,3-dioxoisoindolin-4-yl)amino)ethoxy)ethyl)piperidin-4-yl)-2-fluoro-5-methoxybenzamide]: the half-maximal degradation concentration (DC50) was at most 50 nM and the Dmax was at least 80%. Also, the “PLK1 protein degradability (western blot, FIG. 1 and 2)” value (in comparison with Comparative Compounds) was “excellent PLK1 protein degradability”.

The values are drawn from patent US20230372498A1, “PLK1 SELECTIVE DEGRADATION INDUCING COMPOUND” (UPPTHERA, priority 2020, published 2023).
